The nature of data set [1]: Cytotoxicity against human HeLa cells after 24 to 48 hrs by MTT assay. It is filed as cell-based. The following applies: read-out: TC50 (the source's name).
Data set [2] concerns Plasmodium falciparum. Put plainly: Antimalarial activity against chloroquine-sensitive Plasmodium falciparum 3D7 infected in human erythrocyte after 48 h by SYBR-Green-1 assay. Format: functional, organism-based. Conditions: 3D7, 48 h.
Data set [3] in a line: Therapeutic index, ratio of TC50 for human HeLa cells to IC50 for Plasmodium falciparum RKL9. Format: cell-based. The following applies: read-out: TI.
Data set [4] concerns Plasmodium falciparum. Kind of data set: Resistance index, ratio of IC50 for Plasmodium falciparum 3D7 to IC50 for Plasmodium falciparum RKL9. It is filed as functional.
Data set [5] deals with Plasmodium falciparum. Put plainly: Antimalarial activity against chloroquine-resistant Plasmodium falciparum RKL9 infected in human erythrocyte after 48 h by SYBR-Green-1 assay. It is filed as functional, organism-based. Conditions: RKL9, 48 h.

Converted amounts (≈) assume the structure as drawn. Where only a bound is given, the exact number is not on record here.

Take `COc1cc(/C=C/C(=O)c2cc3ccccc3oc2=O)cc(OC)c1OC`: in data set [1], the CC50 was above 100 µg/mL. In data set [2], this molecule yielded an IC50 of 3.1 µg/mL (≈ 8.46 µM) and an IC80 of 6 µg/mL (≈ 16.4 µM). Further, the selectivity ratio in data set [3] was above 50. In addition, in data set [4], the “Ratio IC50” value came out at 1.6. In data set [5], this molecule displayed an IC50 of 1.9 µg/mL (≈ 5.19 µM).
Turning to `COc1cccc(/C=C/C(=O)c2cc3ccccc3oc2=O)c1`, the CC50 in data set [1] is above 100 µg/mL. In data set [2], the IC50 stood at 11 µg/mL (≈ 35.9 µM) and the IC80 was 24 µg/mL (≈ 78.4 µM). Moreover, the selectivity ratio in data set [3] is above 20. Also, in data set [4], the “Ratio IC50” value worked out at 2.2. For the same molecule, the IC50 in data set [5] worked out at 4.9 µg/mL (≈ 16 µM).
As for `COc1ccc(/C=C/C(=O)c2cc3ccccc3oc2=O)cc1OC`, in data set [2], the IC50 was 26.7 µg/mL (≈ 79.4 µM) and the IC80 was determined as 100 µg/mL (≈ 297 µM).
In data set [2], `COc1ccc(/C=C/C(=O)c2cc3ccccc3oc2=O)cc1` had an IC50 above 100 µg/mL.
On to `COc1ccc(OC)c(/C=C/C(=O)c2cc3ccccc3oc2=O)c1`, for which, in data set [2], the midpoint of inhibition, the IC50, lay at 2.7 µg/mL (≈ 8.03 µM) and the IC80 was 11.3 µg/mL (≈ 33.6 µM).
Consider `COc1ccc(/C=C/C(=O)c2cc3ccccc3oc2=O)c(OC)c1OC`, for which the CC50 in data set [1] came out at 100 µg/mL (≈ 273 µM). Besides, in data set [2], the IC50 was found to be 3.1 µg/mL (≈ 8.46 µM) and the IC80 came to 6.2 µg/mL (≈ 16.9 µM). In data set [3], the selectivity ratio amounted to 90.9. Also, the “Ratio IC50” value in data set [4] is listed as 2.8. In data set [5], the IC50 came to 1.1 µg/mL (≈ 3 µM).
In data set [2], `COc1cc(OC)c(OC)cc1/C=C/C(=O)c1cc2ccccc2oc1=O` displayed an IC50 above 100 µg/mL.
Still for that read-out and setting: as for `COc1ccccc1/C=C/C(=O)c1cc2ccccc2oc1=O`, the figure is above 100 µg/mL.
In data set [2], `Cc1cc(=O)oc2ccc(C(=O)/C=C/c3ccccc3Cl)c(O)c12` had an IC50 of 20 µg/mL (≈ 58.7 µM) and an IC80 of 25 µg/mL (≈ 73.4 µM). Besides, the “Ratio IC50” value in data set [4] came out at 1.5. Further, the IC50 in data set [5] came out at 13.5 µg/mL (≈ 39.6 µM).
`COc1ccc(OC)c(/C=C/C(=O)c2ccc3oc(=O)cc(C)c3c2O)c1` gave an IC50 in data set [2] above 100 µg/mL.
Turning to `COc1ccc(C2CC(c3cc4ccccc4oc3=O)=NN2C(C)=O)cc1OC` (stereo not given), in data set [1], the CC50 was above 100 µg/mL. In data set [2], this molecule gave a concentration for half-maximal inhibition (IC50) of 10 µg/mL (≈ 25.5 µM) and an IC80 of 14 µg/mL (≈ 35.7 µM). In addition, the selectivity ratio in data set [3] is above 10. For the same molecule, the “Ratio IC50” value in data set [4] was found to be 1.1. For the same molecule, the IC50 in data set [5] came to 9 µg/mL (≈ 22.9 µM).
Consider `COc1ccc(C2CC(c3cc4ccccc4oc3=O)=NN2c2ccccc2)cc1OC` (stereo not given), for which, in data set [1], the CC50 is above 100 µg/mL. In data set [2], this molecule gave an IC50 of 10 µg/mL (≈ 23.4 µM) and an IC80 of 44 µg/mL (≈ 103 µM). For the same molecule, in data set [3], the selectivity ratio is above 13. Besides, in data set [4], the “Ratio IC50” value came to 1.3. The molecule also came in with an IC50 in data set [5] of 7.6 µg/mL (≈ 17.8 µM).
`CC(=O)N1N=C(c2ccc(O)cc2)CC1c1ccc(F)cc1` (stereo not given): the IC50 in data set [2] was above 100 µg/mL.
As to `C[C@@H]1CC[C@H]2[C@@H](C)C(=O)O[C@@H]3O[C@@]4(C)CC[C@@H]1[C@]32OO4` [ARTEMISININ], the IC80 in data set [2] amounted to 0.00846 µg/mL (≈ 0.03 µM). Half-maximal inhibition in data set [5] (IC50) was put at 0.00451 µg/mL (≈ 0.016 µM).

What is called IC50 is the concentration at which inhibition is half-maximal. A high value points to weaker potency. What is called IC80 is the concentration needed for an effect of 80%. Low values mean greater potency, high ones weaker potency.

Source of the values: ChEMBL document CHEMBL1208698, “Synthesis of novel alpha-pyranochalcones and pyrazoline derivatives as Plasmodium falciparum growth inhibitors” (Bioorg Med Chem Lett, 2010).
